In this test the test system is bacillus stearothemophilus spores. The test is described as follows: Spore studies in NO and NO2 (BI disks in TYVEK pouches, glass vessel). Particulars: Exp Time 10 min. The test is classed as cell-based. The procedure:
The experiments are conducted in glass vessels in which gases can be metered in exact amounts. The tests were conducted using biological indicators made of stainless steel disks inoculated with 10^6 bacillus stearothemophilus spores. The BI disks are heat-sealed in individual TYVEK sterilization pouches and placed in a glass vessel. The vessel is filled with various mixtures of gases following specific protocols for the order and timing of gas introduction.
In one protocol, the glass vessel is evacuated to 3″ Hg absolute. Either NO or NO2, as the sterilant gas, is added in an amount that corresponds to a 5% concentration (by volume) when the vessel is completely filled with sterilant gas and diluent gas. After 5 minutes, either air or nitrogen was added to the vessel until atmospheric pressure is reached. The BI is exposed to the air or nitrogen for 10 minutes. Thereafter, the BIs, in their pouches, are removed from the vessel and taken to a microbiological hood. The biological indicators are removed from the pouches and placed in tubes with sterile tryptic soy broth, incubated at from about 55 to about 60° C., and monitored for growth.

SMILES strings stand for the structures.

For the compound `[O]N=O` [NO2, nitrogen dioxide], the “spore condition (Dead/Live)” value (5% in Air with Humidity Chip) is reported as “Dead” and the “spore condition (Dead/Live)” value (5% in N2 with Humidity Chip) is “Dead”.
